Source: patent US20240270715A1, “INHIBITORS OF TRANSGLUTAMINASES” (ZEDIRA GMBH, priority 2021, published 2024)

Assays:
[1] = molecular target: T1, recombinant human transglutaminase 2 (Homo sapiens, UniProt P21980); assay: Transglutaminase assay: incorporation of dansylcadaverine into dimethylcasein (DCC-assay); type: biochemical; settings: recombinant human TG2 10 nM, dansylcadaverine/dimethylcasein; read-out: IC50 TG2
T1 sequence (P21980 1-687): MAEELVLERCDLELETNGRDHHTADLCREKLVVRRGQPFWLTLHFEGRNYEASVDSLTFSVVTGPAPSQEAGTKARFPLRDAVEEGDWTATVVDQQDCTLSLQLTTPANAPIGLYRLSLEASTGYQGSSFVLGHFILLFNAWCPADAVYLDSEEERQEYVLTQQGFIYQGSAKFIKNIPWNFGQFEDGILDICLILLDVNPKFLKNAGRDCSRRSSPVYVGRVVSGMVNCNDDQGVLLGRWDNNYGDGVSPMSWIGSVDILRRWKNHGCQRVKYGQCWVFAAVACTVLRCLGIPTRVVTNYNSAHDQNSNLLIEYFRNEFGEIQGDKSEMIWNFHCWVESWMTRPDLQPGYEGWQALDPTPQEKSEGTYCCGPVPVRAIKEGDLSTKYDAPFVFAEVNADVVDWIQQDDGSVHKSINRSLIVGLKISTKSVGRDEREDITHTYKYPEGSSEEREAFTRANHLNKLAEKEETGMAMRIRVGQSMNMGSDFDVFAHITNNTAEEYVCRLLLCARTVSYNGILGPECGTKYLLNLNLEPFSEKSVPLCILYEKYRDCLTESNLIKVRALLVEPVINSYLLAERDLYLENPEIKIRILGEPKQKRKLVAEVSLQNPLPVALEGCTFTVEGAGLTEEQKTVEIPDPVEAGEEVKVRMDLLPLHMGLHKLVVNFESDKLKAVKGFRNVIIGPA
Summary of the method: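 Recombinant human TG2 (10 nM final) incorporates dansylcadaverine (16.7 μM) into N,N-dimethylcasein (4 μM) in Tris-HCl buffer, pH 8.0, with 10 mM CaCl2 and 10 mM glutathione. Fluorescence (λex 330, λem 500 nm) followed 30 min. The slope between 20–30 min gives activity versus DMSO control, and IC50 comes from the concentration–activity plot.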

[2] = Caco-2 permeability assay (CacoReady kit); type: in vitro ADME; settings: human
Summary of the method: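 Compounds are tested on pre-formed Caco-2 barriers supplied as a ready-to-use kit, following the kit protocol, and the Papp value is derived to estimate intestinal absorption.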

[3] = Log D by shake flask method (octanol / PBS pH 7.4, HPLC); type: physicochemical; settings: octanol / PBS pH 7.4, shake flask; read-out: logD
Summary of the method: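 Log D is derived by HPLC measurement of how the compound distributes between octanol and pH 7.4 phosphate-buffered saline in a shake flask.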

| SMILES | IC50 [1] | Papp [2] | logD [3] |
| --- | --- | --- | --- |
| CCNC(=O)C(=O)CC[C@H](NC(=O)c1cc(Cl)sc1Cl)C(=O)Nc1cccn(CC(=O)NC2C3CC4CC(C3)CC2C4)c1=O (stereo partly drawn) [Compound I-46, (S)-2-(2,5-dichlorothiophene-3-carboxamido)-N6-ethyl-N1-(1-(2-(2-adamantylamino)-2-oxoethyl)-2-oxo-1,2-dihydropyridin-3-yl)-5-oxohexanediamide] | < 150 nM | 1 to 10 ×10⁻⁶ cm/s | 3 to 5 |
| CCNC(=O)C(=O)CC[C@H](NC(=O)c1cc(Br)sc1Br)C(=O)Nc1cccn(CC(=O)NC2C3CC4CC(C3)CC2C4)c1=O (stereo partly drawn) [Compound I-47, (S)-2-(2,5-dibromothiophene-3-carboxamido)-N6-ethyl-N1-(1-(2-(2-adamantylamino)-2-oxoethyl)-2-oxo-1,2-dihydropyridin-3-yl)-5-oxohexanediamide] | < 150 nM | 1 to 10 ×10⁻⁶ cm/s | 3 to 5 |
| CCNC(=O)C(=O)CC[C@H](NC(=O)c1nc(Cl)sc1Cl)C(=O)Nc1cccn(CC(=O)NC2C3CC4CC(C3)CC2C4)c1=O (stereo partly drawn) [Compound I-48, (S)-2-(2,5-dichlorothiazole-4-carboxamido)-N6-ethyl-N1-(1-(2-(2-adamantylamino)-2-oxoethyl)-2-oxo-1,2-dihydropyridin-3-yl)-5-oxohexanediamide] | 150 to 600 nM | 1 to 10 ×10⁻⁶ cm/s | 1 to 3 |
| CCNC(=O)C(=O)CC[C@H](NC(=O)c1cc(C)oc1C)C(=O)Nc1cccn(CC(=O)NC2C3CC4CC(C3)CC2C4)c1=O (stereo partly drawn) [Compound I-49, (S)-2-(2,5-dimethylfuran-3-carboxamido)-N6-ethyl-N1-(1-(2-(2-adamantylamino)-2-oxoethyl)-2-oxo-1,2-dihydropyridin-3-yl)-5-oxohexanediamide] | < 150 nM | 1 to 10 ×10⁻⁶ cm/s | 1 to 3 |
| CCNC(=O)C(=O)CC[C@H](NC(=O)c1nc(Br)cs1)C(=O)Nc1cccn(CC(=O)NC2C3CC4CC(C3)CC2C4)c1=O (stereo partly drawn) [Compound I-50, (S)-2-(4-bromothiazole-2-carboxamido)-N6-ethyl-N1-(1-(2-(2-adamantylamino)-2-oxoethyl)-2-oxo-1,2-dihydropyridin-3-yl)-5-oxohexanediamide] | < 150 nM | 1 to 10 ×10⁻⁶ cm/s | 3 to 5 |
| CCNC(=O)C(=O)CC[C@H](NC(=O)c1cc(Br)cs1)C(=O)Nc1cccn(CC(=O)NC2C3CC4CC(C3)CC2C4)c1=O (stereo partly drawn) [Compound I-51, (S)-2-(4-bromothiophene-2-carboxamido)-N6-ethyl-N1-(1-(2-(2-adamantylamino)-2-oxoethyl)-2-oxo-1,2-dihydropyridin-3-yl)-5-oxohexanediamide] | < 150 nM | 1 to 10 ×10⁻⁶ cm/s | 3 to 5 |
| CCNC(=O)C(=O)CC[C@H](NC(=O)c1cc(Br)c(Cl)s1)C(=O)Nc1cccn(CC(=O)NC2C3CC4CC(C3)CC2C4)c1=O (stereo partly drawn) [Compound I-52, (S)-2-(4-bromo-5-chlorothiophene-2-carboxamido)-N6-ethyl-N1-(1-(2-(2-adamantylamino)-2-oxoethyl)-2-oxo-1,2-dihydropyridin-3-yl)-5-oxohexanediamide] | < 150 nM | 1 to 10 ×10⁻⁶ cm/s | 3 to 5 |
| CCNC(=O)C(=O)CC[C@H](NC(=O)c1cc(Br)c(Br)s1)C(=O)Nc1cccn(CC(=O)NC2C3CC4CC(C3)CC2C4)c1=O (stereo partly drawn) [Compound I-53, (S)-2-(4,5-dibromothiophene-2-carboxamido)-N6-ethyl-N1-(1-(2-(2-adamantylamino)-2-oxoethyl)-2-oxo-1,2-dihydropyridin-3-yl)-5-oxohexanediamide] | < 150 nM | 1 to 10 ×10⁻⁶ cm/s | 3 to 5 |
| CCNC(=O)C(=O)CC[C@H](NC(=O)c1cc(Cl)c(Cl)s1)C(=O)Nc1cccn(CC(=O)NC2C3CC4CC(C3)CC2C4)c1=O (stereo partly drawn) [Compound I-54, (S)-2-(4,5-dichlorothiophene-2-carboxamido)-N6-ethyl-N1-(1-(2-(2-adamantylamino)-2-oxoethyl)-2-oxo-1,2-dihydropyridin-3-yl)-5-oxohexanediamide] | < 150 nM | 1 to 10 ×10⁻⁶ cm/s | 3 to 5 |
| CCNC(=O)C(=O)CC[C@H](NC(=O)[C@@H]1CCCN1C(C)=O)C(=O)Nc1cccn(CC(=O)NC2C3CC4CC(C3)CC2C4)c1=O (stereo partly drawn) [Compound I-55, (S)-2-((S)-1-acetylpyrrolidine-2-carboxamido)-N6-ethyl-N1-(1-(2-(2-adamantylamino)-2-oxoethyl)-2-oxo-1,2-dihydropyridin-3-yl)-5-oxohexanediamide] | 150 to 600 nM | < 1 ×10⁻⁶ cm/s | 1 to 3 |
| CCNC(=O)C(=O)CC[C@H](NC(=O)c1cnnn1C)C(=O)Nc1cccn(CC(=O)NC2C3CC4CC(C3)CC2C4)c1=O (stereo partly drawn) [Compound I-56, (S)-N1-ethyl-N6-(1-(2-(2-adamantylamino)-2-oxoethyl)-2-oxo-1,2-dihydropyridin-3-yl)-5-(1-methyl-1H-1,2,3-triazole-5-carboxamido)-2-oxohexanediamide] | < 150 nM | 1 to 10 ×10⁻⁶ cm/s | < 1 |
| CCNC(=O)C(=O)CC[C@H](NC(=O)c1nn[nH]n1)C(=O)Nc1cccn(CC(=O)NC2C3CC4CC(C3)CC2C4)c1=O (stereo partly drawn) [Compound I-57, (S)-N1-ethyl-N6-(1-(2-(2-adamantylamino)-2-oxoethyl)-2-oxo-1,2-dihydropyridin-3-yl)-2-oxo-5-(2H-tetrazole-5-carboxamido)hexanediamide] | 600 to 3500 nM | < 1 ×10⁻⁶ cm/s | < 1 |
| CCNC(=O)C(=O)CC[C@H](NC(=O)c1cnccn1)C(=O)Nc1cccn(CC(=O)NC2C3CC4CC2CC(O)(C4)C3)c1=O (stereo partly drawn) [Compound I-58, (S)-N1-ethyl-N6-(1-(2-(5-hydroxyadamantane-2-amino)-2-oxoethyl)-2-oxo-1,2-dihydropyridin-3-yl)-2-oxo-5-(pyrazine-2-carboxamido)hexanediamide] | 150 to 600 nM | < 1 ×10⁻⁶ cm/s | < 1 |
| CCNC(=O)C(=O)CC[C@H](NC(=O)[C@H]1CCNC1)C(=O)Nc1cccn(CC(=O)NC2C3CC4CC2CC(F)(C4)C3)c1=O (stereo partly drawn) [Compound I-59, (S)-N1-ethyl-N6-(1-(2-(5-fluoroadamantane-2-amino)-2-oxoethyl)-2-oxo-1,2-dihydropyridin-3-yl)-2-oxo-5-((S)-pyrrolidine-3-carboxamido)hexanediamide] | 150 to 600 nM | < 1 ×10⁻⁶ cm/s | < 1 |
| CCNC(=O)C(=O)CC[C@H](NC(=O)[C@@H]1CCCCN1)C(=O)Nc1cccn(CC(=O)NC2C3CC4CC2CC(Cl)(C4)C3)c1=O (stereo partly drawn) [Compound I-60, (S)-N1-ethyl-N6-(1-(2-(5-chloroadamantane-2-amino)-2-oxoethyl)-2-oxo-1,2-dihydropyridin-3-yl)-2-oxo-5-((S)-piperidine-2-carboxamido)hexanediamide] | 150 to 600 nM | < 1 ×10⁻⁶ cm/s | 1 to 3 |
| CCNC(=O)C(=O)CC[C@H](NC(=O)[C@@H]1CCCNC1)C(=O)Nc1cccn(CC(=O)NC2C3CC4CC2CC(Br)(C4)C3)c1=O (stereo partly drawn) [Compound I-61, (S)-N1-ethyl-N6-(1-(2-(5-bromoadamantane-2-amino)-2-oxoethyl)-2-oxo-1,2-dihydropyridin-3-yl)-2-oxo-5-((R)-piperidine-3-carboxamido)hexanediamide] | 150 to 600 nM | < 1 ×10⁻⁶ cm/s | 1 to 3 |
| CCNC(=O)C(=O)CC[C@H](NC(=O)[C@H]1COCCN1)C(=O)Nc1cccn(CC(=O)NC2C3CC4CC2CC(C)(C4)C3)c1=O (stereo partly drawn) [Compound I-62, (S)-N1-ethyl-N6-(1-(2-(5-methyladamantane-2-amino)-2-oxoethyl)-2-oxo-1,2-dihydropyridin-3-yl)-5-((R)-morpholine-3-carboxamido)-2-oxohexanediamide] | 150 to 600 nM | < 1 ×10⁻⁶ cm/s | 1 to 3 |
| CCNC(=O)C(=O)CC[C@H](NC(=O)C1CN2CCC1CC2)C(=O)Nc1cccn(CC(=O)NC2(C#N)C3CC4CC(C3)CC2C4)c1=O (stereo partly drawn) [Compound I-63, (S)-N1-ethyl-N6-(1-(2-(2-carbonitrileadamantane-2-amino)-2-oxoethyl)-2-oxo-1,2-dihydropyridin-3-yl)-2-oxo-5-((3S,4R)-quinuclidine-3-carboxamido)hexanediamide] | 150 to 600 nM | < 1 ×10⁻⁶ cm/s | < 1 |
| CCNC(=O)C(=O)CC[C@H](NC(=O)c1cc(C(=O)OC)cc([N+](=O)[O-])c1)C(=O)Nc1cccn(CC(=O)NC2(C(=O)OC)C3CC4CC(C3)CC2C4)c1=O (stereo partly drawn) [Compound I-64, (S)-methyl 3-(6-(ethylamino)-1-(1-(2-(methyl 2-aminoadamantane-2-carboxylate)-2-oxoethyl)-2-oxo-1,2-dihydropyridin-3-ylamino)-1,5,6-trioxohexan-2-ylcarbamoyl)-5-nitrobenzoate] | < 150 nM | 1 to 10 ×10⁻⁶ cm/s | 1 to 3 |
